Measured values as given in patent US6174897A, “Bis-(quinolyl)-diamines” (Bayer Aktiengesellschaft, priority 1996, dated 2001).

What was measured:
[1] = tested on: apamin-sensitive potassium channels (PC12 cells); experiment: Non-radioactive Rb+ efflux assay in PC12 cells; format: cell-based
Procedure: 2) Non-radioactive Rb^+ Efflux Assay for the Identification of Potassium Channel Modulators
The cellular potassium in PC12 cells is exchanged with rubidium, which is not present in the cells. This exchange is performed by incubating the cells over a period of 4 h in a physiological buffer containing 5.4 mM RbCl without KCl. This rubidium subsequently serves as a tracer for potassium. The cells laden with Rb^+ in this way are washed three times and then stimulated by depolarization with 50 mM KCl to open potassium channels (10 min), causing Rb^+ to flow out of the cells into the supernatant according to the concentration gradient.
The rubidium contents in the cell supernatant and in the residual cells after they have been lysed with 1% Triton X-100 are then determined by means of atomic absorption spectroscopy. The relative proportion of rubidium in the cell supernatent (=Rb^+ efflux) is used as a measure of the potassium channel activity.
The effect of substances on the channel activity is measured by co-incubating the test substance over the ten-minute stimulation period and determining its effect on the Rb^+ efflux in the manner described above.

[2] = molecular target: apamin binding sites / apamin receptors (bovine cerebral membrane, calf hippocampus); experiment: Binding of 125I-apamin to bovine cerebral membrane; settings: 125I-apamin 30 pM, calf hippocampus membranes
Procedure: 1) Binding of ^125 1I-apamine to Bovine Cerebral Membrane
Calf brains were obtained from the local abattoir. The hippocampus was prepared on ice and a membrane suspension was made up by homogenization twice in buffer (100 mM Tris-HCl, KCl 5 mM, pH 7.4) and centrifugation at 43,000×g. In a total volume of 500 μl, the incubation mixture contained 200 μg of membrane protein, 30 pM ^125 I-apamin and test substances in the concentration range 1×10^-9 to 1×10^-4 M. The non-specific binding of ^125 I-apamine was determined in the presence of 1×10^-7 M unlabelled apamin.
After preincubation for 30 min at room temperature (test substances and membrane homogenate), the samples were placed on ice for 10 min before the radioligand was added. The main incubation time was 60 min on ice. When the reaction time had elapsed, an excess of ice-cooled incubation buffer was added to each sample and the mixture was filtered with suction through cellulose acetate/nitrate membrane filters. The amount of bound ^125 I-apamin was measured with a gamma counter.

SMILES	% inhibition of the Rb efflux ([1]; test concentration of 10 μM) [%]	Ki [2] [nM]	% inhibition of the Rb efflux ([1]; at 1 μM) [%]
CCc1cc(NCCCCCNc2cc(CC)nc3ccccc23)c2ccccc2n1 [Example 1]	77	17	
CCCc1cc(NCCCCCNc2cc(CCC)nc3ccccc23)c2ccccc2n1 [Example 2]		13	
Cc1cccc2c(NCCCCCNc3cc(C(C)C)nc4c(C)cccc34)cc(C(C)C)nc12 [Example 4]	75		68
